In patent publication US10183944B2 (Asana Biosciences, LLC, priority 2011, dated 2019):
Where two headings read alike, the source gives them in different places.

Assays:
[1] = biological target: Syk (356-635 amino acids) catalytic domain (Homo sapiens (Human), UniProt P43405); experiment: Inhibition of enzymatic Syk kinase activity (radiometric); assay type: biochemical
Method in brief: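 Radiometric filter-binding format: 32P transfer from γ-32P-ATP onto pG4T, scintillation-counted after acid washes of P81 paper. Syk kinase domain (356-635), 0.035–7.5 ng per reaction, was exposed to compound for 30 minutes at room temperature before a 10-minute, 30° C. reaction with ATP (100 μM stock). Inhibition derived from counts with versus without compound.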

JAK2 = JAK2 (Homo sapiens (Human), UniProt O60674); experiment: Inhibition of enzymatic JAK2 kinase activity (TR-FRET); assay type: biochemical
Sequence of JAK2 (O60674 808-1132): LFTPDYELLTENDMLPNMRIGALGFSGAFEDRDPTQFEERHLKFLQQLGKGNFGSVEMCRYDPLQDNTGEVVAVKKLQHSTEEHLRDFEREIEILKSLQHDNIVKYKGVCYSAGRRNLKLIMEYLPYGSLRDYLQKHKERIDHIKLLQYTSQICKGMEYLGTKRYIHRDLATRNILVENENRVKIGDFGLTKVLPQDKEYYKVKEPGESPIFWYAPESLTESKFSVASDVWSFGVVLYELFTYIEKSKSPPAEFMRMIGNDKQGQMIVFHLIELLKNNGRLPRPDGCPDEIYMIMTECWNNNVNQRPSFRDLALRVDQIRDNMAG
Method in brief: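 TR-FRET read-out (Eu antibody donor, Ulight poly Glu-Tyr acceptor, 665/615 nm ratio) after a 60 min RT kinase reaction with ATP, begun following 30 min compound–enzyme preincubation. Stopped by EDTA; inhibition expressed as 100 minus % activity of positive control.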

RBL2H3 cells = experiment: Degranulation assay: β-hexosaminidase release during immune complex mediated degranulation; assay type: cell-based, rat
Method in brief: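 Fluorometric β-NAG read-out (Ex 355, Em 460 nm; 30 min, RT) of supernatant after DNP-BSA stimulation (45–60 min) of anti-DNP IgE-sensitized RBL2H3 cells. Compounds (0.5% DMSO) added 15 min before antigen; degranulation expressed as % β-hexosaminidase release or inhibition.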

[2] = Rattus norvegicus, RBL-2H3, 1 μM, Assay Protocol B (96 well format), read-out: Degranulation % inhibition at 1 μM
[3] = Rattus norvegicus, RBL-2H3, Assay Protocol B (96 well format), read-out: Degranulation EC50

Row | IC50 ([1]; read-out: IC50 Syk) [nM] | IC50 (JAK2; read-out: IC50 JAK) [nM] | EC50 (RBL2H3 cells; [3]) [nM] | EC50 (RBL2H3 cells; Assay Protocol B (96 well format), read-out: Degranulation EC50) [nM] | Compound | inhibition at 1 µM (RBL2H3 cells; [2]) [%] | IC50 [1] [nM] | IC50 (JAK2) [nM] | inhibition at 1 µM (RBL2H3 cells; Rattus norvegicus, RBL-2H3, read-out: Degranulation % inhibition at 1 μM) [%] | EC50 (RBL2H3 cells; Rattus norvegicus, RBL-2H3, read-out: Degranulation EC50 (nM)) [nM] | Degranulation % inhibition at 1 μM (RBL2H3 cells; 1 μM, Assay Protocol B (96 well format)) [%]
1 | < 50 | < 50 | 28 | – | N#CCC1CCN(c2nc(Nc3ccc(CCN4CCN(CCO)CC4)cc3)c3c(=O)[nH]ncc3n2)CC1 [Example 212, 2-(1-(4-((4-(2-(4-(2-hydroxyethyl)piperazin-1-yl)ethyl)phenyl)amino)-5-oxo-5,6-dihydropyrimido[4,5-d]pyridazin-2-yl)piperidin-4-yl)acetonitrile] | 71 | – | – | – | – | –
2 | < 10 | < 50 | 33 | – | CC(C)(C(=O)O)N1CCN(c2ccc(Nc3nc(N4CCC(CC#N)CC4)nc4cn[nH]c(=O)c34)cc2)CC1 [Example 213, 2-(4-(4-((2-(4-(cyanomethyl)piperidin-1-yl)-5-oxo-5,6-dihydropyrimido[4,5-d]pyridazin-4-yl)amino)phenyl)piperazin-1-yl)-2-methylpropanoic acid] | 78 | – | – | – | – | –
3 | < 10 | < 10 | 12 | – | N#CCC(=O)N1CCN(c2ccc(Nc3nc(N4CCCCCC4)nc4cn[nH]c(=O)c34)cc2)CC1 [Example 215, 3-(4-(4-((2-(azepan-1-yl)-5-oxo-5,6-dihydropyrimido[4,5-d]pyridazin-4-yl)amino)phenyl)piperazin-1-yl)-3-oxopropanenitrile] | 96 | – | – | – | – | –
4 | < 10 | < 10 | 21 | – | N#CCC1CCN(c2nc(Nc3ccc(N4CCC(CO)CC4)cc3)c3c(=O)[nH]ncc3n2)CC1 [Example 216, 2-(1-(4-((4-(4-(hydroxymethyl)piperidin-1-yl)phenyl)amino)-5-oxo-5,6-dihydropyrimido[4,5-d]pyridazin-2-yl)piperidin-4-yl)acetonitrile] | 92 | – | – | – | – | –
5 | – | – | – | – | O=C(OCOP(=O)(O)O)C1CC12CCN(c1ccc(Nc3nc(N4CCCCCC4)nc4cn[nH]c(=O)c34)cc1)CC2 (stereo not shown) [Example 219, (phosphonooxy)methyl 6-(4-((2-(azepan-1-yl)-5-oxo-5,6-dihydropyrimido[4,5-d]pyridazin-4-yl)amino)phenyl)-6-azaspiro[2.5]octane-1-carboxylate] | – | < 10 | < 10 | 45 | 96 | –
6 | < 50 | < 100 | 367 | – | N#CCC1CCN(c2nc(Nc3ccc(N4CCNCC4)nc3)c3c(=O)[nH]ncc3n2)CC1 [Example 231, 2-(1-(5-oxo-4-((6-(piperazin-1-yl)pyridin-3-yl)amino)-5,6-dihydropyrimido[4,5-d]pyridazin-2-yl)piperidin-4-yl)acetonitrile] | 0 | – | – | – | – | –
7 | < 50 | < 10 | – | 619 | N=Cc1nc(N2CCCCCC2)nc(Nc2ccc(N3CCCC(CC(=O)O)C3)cc2)c1C(N)=O (stereo not shown) [Example 232] | – | – | – | – | – | 0
8 | < 10 | < 10 | 174 | – | O=C(O)CC1CCCN(c2ccc(Nc3nc(N4CCCCCC4)nc4cn[nH]c(=O)c34)cc2)C1 (stereo not shown) [Example 233, 2-(1-(4-((2-(azepan-1-yl)-5-oxo-5,6-dihydropyrimido[4,5-d]pyridazin-4-yl)amino)phenyl)piperidin-3-yl)acetic acid] | 20 | – | – | – | – | –
9 | < 10 | < 10 | 306 | – | O=c1[nH]ncc2nc(N3CCCCCC3)nc(Nc3ccc(N4CCC(Cc5nn[nH]n5)CC4)cc3)c12 [Example 244, 4-((4-(4-((2H-tetrazol-5-yl)methyl)piperidin-1-yl)phenyl)amino)-2-(azepan-1-yl)pyrimido[4,5-d]pyridazin-5(6H)-one] | 23 | – | – | – | – | –
10 | < 10 | < 10 | 19 | – | CN1CCN(c2ccc(Nc3nc(N4CCC(CC#N)CC4)nc4cn[nH]c(=O)c34)cc2)CC1 [Example 248, 2-(1-(4-((4-(4-methylpiperazin-1-yl)phenyl)amino)-5-oxo-5,6-dihydropyrimido[4,5-d]pyridazin-2-yl)piperidin-4-yl)acetonitrile] | 99 | – | – | – | – | –
11 | < 10 | < 50 | 1200 | – | O=C(O)CN1CCC(Oc2ccc(Nc3nc(N4CCCCCC4)nc4cn[nH]c(=O)c34)cc2)CC1 [Example 254, 2-(4-(4-((2-(azepan-1-yl)-5-oxo-5,6-dihydropyrimido[4,5-d]pyridazin-4-yl)amino)phenoxy)piperidin-1-yl) acetic acid] | 24 | – | – | – | – | –
12 | < 10 | < 50 | 39 | – | N#CCC1CCN(c2nc(Nc3ccc(N4CCN(CCCO)CC4)cc3)c3c(=O)[nH]ncc3n2)CC1 [Example 261, 2-(1-(4-((4-(4-(3-hydroxypropyl)piperazin-1-yl)phenyl)amino)-5-oxo-5,6-dihydropyrimido[4,5-d]pyridazin-2-yl)piperidin-4-yl)acetonitrile] | 87 | – | – | – | – | –
13 | < 10 | < 10 | 54 | – | N#CCC1CCN(c2nc(Nc3ccc(N4CCCN(CCO)CC4)cc3)c3c(=O)[nH]ncc3n2)CC1 [Example 264, 2-(1-(4-((4-(4-(2-hydroxyethyl)-1,4-diazepan-1-yl)phenyl)amino)-5-oxo-5,6-dihydropyrimido[4,5-d]pyridazin-2-yl)piperidin-4-yl)acetonitrile] | 75 | – | – | – | – | –
14 | < 10 | < 10 | 30 | – | CC(C)(CO)N1CCN(c2ccc(Nc3nc(N4CCCCCC4)nc4cn[nH]c(=O)c34)cc2)CC1 [Example 265, 2-(azepan-1-yl)-4-((4-(4-(1-hydroxy-2-methylpropan-2-yl)piperazin-1-yl)phenyl)amino)pyrimido[4,5-d]pyridazin-5(6H)-one] | 79 | – | – | – | – | –
15 | < 10 | < 50 | 10 | – | CC(C)(CO)N1CCN(c2ccc(Nc3nc(N4CCC(CC#N)CC4)nc4cn[nH]c(=O)c34)cc2)CC1 [Example 266, 2-(1-(4-((4-(4-(1-hydroxy-2-methylpropan-2-yl)piperazin-1-yl)phenyl)amino)-5-oxo-5,6-dihydropyrimido[4,5-d]pyridazin-2-yl)piperidin-4-yl) acetonitrile] | 99 | – | – | – | – | –
16 | < 10 | < 10 | 21 | – | CN(C)CCN1CCN(c2ccc(Nc3nc(N4CCCCCC4)nc4cn[nH]c(=O)c34)cc2)CC1 [Example 267, 2-(azepan-1-yl)-4-((4-(4-(2-(dimethylamino)ethyl)piperazin-1-yl)phenyl)amino)pyrimido[4,5-d]pyridazin-5(6H)-one] | 90 | – | – | – | – | –
17 | < 10 | < 50 | 20 | – | CN(C)CCN1CCN(c2ccc(Nc3nc(N4CCC(CC#N)CC4)nc4cn[nH]c(=O)c34)cc2)CC1 [Example 268, 2-(1-(4-((4-(4-(2-(dimethylamino)ethyl)piperazin-1-yl)phenyl)amino)-5-oxo-5,6-dihydropyrimido[4,5-d]pyridazin-2-yl)piperidin-4-yl)acetonitrile] | 93 | – | – | – | – | –
18 | < 10 | < 10 | 21 | – | O=c1[nH]ncc2nc(N3CCCCCC3)nc(Nc3ccc(N4CCN(CC(O)CO)CC4)cc3)c12 (stereo not shown) [Example 273, 2-(azepan-1-yl)-4-((4-(4-(2,3-dihydroxypropyl)piperazin-1-yl)phenyl)amino)pyrimido[4,5-d]pyridazin-5(6H)-one] | 91 | – | – | – | – | –

Row | Compound | IC50 ([1]; read-out: IC50 Syk) [nM] | IC50 (JAK2; read-out: IC50 JAK) [nM] | EC50 (RBL2H3 cells; [3]) [nM] | EC50 (RBL2H3 cells; Assay Protocol B (96 well format), read-out: Degranulation EC50) [nM] | inhibition at 1 µM (RBL2H3 cells; [2]) [%] | IC50 [1] [nM] | IC50 (JAK2) [nM] | inhibition at 1 µM (RBL2H3 cells; Rattus norvegicus, RBL-2H3, read-out: Degranulation % inhibition at 1 μM) [%] | EC50 (RBL2H3 cells; Rattus norvegicus, RBL-2H3, read-out: Degranulation EC50 (nM)) [nM] | Degranulation % inhibition at 1 μM (RBL2H3 cells; 1 μM, Assay Protocol B (96 well format)) [%]
19 | O=c1[nH]ncc2nc(N3CCCCCC3)nc(Nc3ccc(CCN4CCN(CCO)CC4)cc3)c12 [Example 211, 2-(azepan-1-yl)-4-((4-(2-(4-(2-hydroxyethyl)piperazin-1-yl)ethyl)phenyl)amino)pyrimido[4,5-d]pyridazin-5(6H)-one] | < 50 | < 50 | 49 | – | 53 | – | – | – | – | –
20 | CC(C)(O)C(=O)N1CCN(c2ccc(Nc3nc(N4CCCCCC4)nc4cn[nH]c(=O)c34)cc2)CC1 [Example 214, 2-(azepan-1-yl)-4-((4-(4-(2-hydroxy-2-methylpropanoyl)piperazin-1-yl)phenyl)amino)pyrimido[4,5-d]pyridazin-5(6H)-one] | < 10 | < 10 | 19 | – | 78 | – | – | – | – | –
21 | N#CCC1CCN(c2nc(Nc3ccc(OCCN4CCC(CO)CC4)cc3)c3c(=O)[nH]ncc3n2)CC1 [Example 218, 2-(1-(4-((4-(2-(4-(hydroxymethyl)piperidin-1-yl)ethoxy)phenyl)amino)-5-oxo-5,6-dihydropyrimido[4,5-d]pyridazin-2-yl)piperidin-4-yl) acetonitrile] | < 50 | < 50 | 123 | – | 33 | – | – | – | – | –
22 | COCCN1CCN(c2ccc(Nc3nc(N4CCC(CC#N)CC4)nc4cn[nH]c(=O)c34)cc2)CC1 [Example 256, 2-(1-(4-((4-(4-(2-methoxyethyl)piperazin-1-yl)phenyl)amino)-5-oxo-5,6-dihydropyrimido[4,5-d]pyridazin-2-yl)piperidin-4-yl)acetonitrile] | < 10 | < 50 | 33 | – | 73 | – | – | – | – | –
